{
  "source": "ChEMBL document CHEMBL5120927",
  "about": "“LEGO-Lipophosphonoxins: A Novel Approach in Designing Membrane Targeting Antimicrobials” (J Med Chem, 2022)",
  "data": [
    {"test_system": "not listed separately", "assay": "Gradient chromatographic hydrophobicity index of the compound at pH 3.7 by HPLC analysis", "format": "ADME", "conditions": "not given", "values": [
      {"molecule": "CCCC/C=C\\CCOP(=O)(CCN(CCCNC(=N)N)CCCNC(=N)N)OCCCCCCOP(=O)(CCN(CCCNC(=N)N)CCCNC(=N)N)OCC/C=C\\CCCC.Cl.Cl.Cl.Cl.Cl.Cl", "note": "(stereo unspecified)", "CHI": 333},
      {"molecule": "CCCCCCCOP(=O)(CCN(CCCN)CCCN)OCCCCOP(=O)(CCN(CCCN)CCCN)OCCCCCCC.Cl.Cl.Cl.Cl.Cl.Cl", "note": "(stereo unspecified)", "CHI": 30.7}
    ]},
    {"test_system": "Staphylococcus aureus", "assay": "Antibacterial activity against Staphylococcus aureus ATCC 29213 = CCM 4223 assessed as inhibition of bacterial growth incubated for 24 hrs in presence of BSA by microdilution assay", "format": "functional", "conditions": "not given", "units": {"MIC": "mg/L"}, "values": [
      {"molecule": "CCCC/C=C\\CCOP(=O)(CCN(CCCNC(=N)N)CCCNC(=N)N)OCCCCCCOP(=O)(CCN(CCCNC(=N)N)CCCNC(=N)N)OCC/C=C\\CCCC.Cl.Cl.Cl.Cl.Cl.Cl", "note": "(stereo unspecified)", "MIC": 0.2},
      {"molecule": "CCCCCCCOP(=O)(CCN(CCCN)CCCN)OCCCCOP(=O)(CCN(CCCN)CCCN)OCCCCCCC.Cl.Cl.Cl.Cl.Cl.Cl", "note": "(stereo unspecified)", "MIC": 8}
    ]},
    {"test_system": "Enterococcus faecium", "assay": "Antibacterial activity against vancomycin resistant Enterococcus faecium 419/ANA assessed as reduction in microbial growth incubated for 24 hrs by microdilution assay", "format": "functional", "conditions": "not given", "units": {"MIC": "mg/L"}, "values": [
      {"molecule": "CCCC/C=C\\CCOP(=O)(CCN(CCCNC(=N)N)CCCNC(=N)N)OCCCCCCOP(=O)(CCN(CCCNC(=N)N)CCCNC(=N)N)OCC/C=C\\CCCC.Cl.Cl.Cl.Cl.Cl.Cl", "note": "(stereo unspecified)", "MIC": 32},
      {"molecule": "CCCCCCCOP(=O)(CCN(CCCN)CCCN)OCCCCOP(=O)(CCN(CCCN)CCCN)OCCCCCCC.Cl.Cl.Cl.Cl.Cl.Cl", "note": "(stereo unspecified)", "MIC": "> 128"}
    ]},
    {"test_system": "Pseudomonas aeruginosa", "assay": "Antibacterial activity against multidrug-resistant Pseudomonas aeruginosa assessed as reduction in microbial growth incubated for 24 hrs by microdilution assay", "format": "functional", "conditions": "not given", "units": {"MIC": "mg/L"}, "values": [
      {"molecule": "CCCC/C=C\\CCOP(=O)(CCN(CCCNC(=N)N)CCCNC(=N)N)OCCCCCCOP(=O)(CCN(CCCNC(=N)N)CCCNC(=N)N)OCC/C=C\\CCCC.Cl.Cl.Cl.Cl.Cl.Cl", "note": "(stereo unspecified)", "MIC": 16},
      {"molecule": "CCCCCCCOP(=O)(CCN(CCCN)CCCN)OCCCCOP(=O)(CCN(CCCN)CCCN)OCCCCCCC.Cl.Cl.Cl.Cl.Cl.Cl", "note": "(stereo unspecified)", "MIC": 128}
    ]},
    {"test_system": "Escherichia coli", "assay": "Antibacterial activity against Escherichia coli ATCC 25922 = CCM 3954 assessed as inhibition of bacterial growth incubated for 24 hrs in presence of BSA by microdilution assay", "format": "functional", "conditions": "not given", "units": {"MIC": "mg/L"}, "values": [
      {"molecule": "CCCC/C=C\\CCOP(=O)(CCN(CCCNC(=N)N)CCCNC(=N)N)OCCCCCCOP(=O)(CCN(CCCNC(=N)N)CCCNC(=N)N)OCC/C=C\\CCCC.Cl.Cl.Cl.Cl.Cl.Cl", "note": "(stereo unspecified)", "MIC": 0.5},
      {"molecule": "CCCCCCCOP(=O)(CCN(CCCN)CCCN)OCCCCOP(=O)(CCN(CCCN)CCCN)OCCCCCCC.Cl.Cl.Cl.Cl.Cl.Cl", "note": "(stereo unspecified)", "MIC": 32}
    ]},
    {"test_system": "Enterococcus faecalis", "assay": "Antibacterial activity against Enterococcus faecalis ATCC 29212 = CCM 4224 assessed as inhibition of bacterial growth incubated for 24 hrs by microdilution assay", "format": "functional", "conditions": "not given", "units": {"MIC": "mg/L"}, "values": [
      {"molecule": "CCCC/C=C\\CCOP(=O)(CCN(CCCNC(=N)N)CCCNC(=N)N)OCCCCCCOP(=O)(CCN(CCCNC(=N)N)CCCNC(=N)N)OCC/C=C\\CCCC.Cl.Cl.Cl.Cl.Cl.Cl", "note": "(stereo unspecified)", "MIC": 8},
      {"molecule": "CCCCCCCOP(=O)(CCN(CCCN)CCCN)OCCCCOP(=O)(CCN(CCCN)CCCN)OCCCCCCC.Cl.Cl.Cl.Cl.Cl.Cl", "note": "(stereo unspecified)", "MIC": 64}
    ]},
    {"test_system": "Staphylococcus epidermidis", "assay": "Antibacterial activity against Staphylococcus epidermidis CCM 7221 assessed as inhibition of bacterial growth incubated for 24 hrs by microdilution assay", "format": "functional", "conditions": "not given", "units": {"MIC": "mg/L"}, "values": [
      {"molecule": "CCCC/C=C\\CCOP(=O)(CCN(CCCNC(=N)N)CCCNC(=N)N)OCCCCCCOP(=O)(CCN(CCCNC(=N)N)CCCNC(=N)N)OCC/C=C\\CCCC.Cl.Cl.Cl.Cl.Cl.Cl", "note": "(stereo unspecified)", "MIC": 1},
      {"molecule": "CCCCCCCOP(=O)(CCN(CCCN)CCCN)OCCCCOP(=O)(CCN(CCCN)CCCN)OCCCCCCC.Cl.Cl.Cl.Cl.Cl.Cl", "note": "(stereo unspecified)", "MIC": 2}
    ]},
    {"test_system": "Staphylococcus aureus", "assay": "Antibacterial activity against Staphylococcus aureus ATCC 29213 = CCM 4223 assessed as inhibition of bacterial growth incubated for 24 hrs by microdilution assay", "format": "functional", "conditions": "not given", "units": {"MIC": "mg/L"}, "values": [
      {"molecule": "CCCC/C=C\\CCOP(=O)(CCN(CCCNC(=N)N)CCCNC(=N)N)OCCCCCCOP(=O)(CCN(CCCNC(=N)N)CCCNC(=N)N)OCC/C=C\\CCCC.Cl.Cl.Cl.Cl.Cl.Cl", "note": "(stereo unspecified)", "MIC": 1},
      {"molecule": "CCCCCCCOP(=O)(CCN(CCCN)CCCN)OCCCCOP(=O)(CCN(CCCN)CCCN)OCCCCCCC.Cl.Cl.Cl.Cl.Cl.Cl", "note": "(stereo unspecified)", "MIC": 4}
    ]},
    {"test_system": "Escherichia coli", "assay": "Antibacterial activity against multidrug-resistant Escherichia coli CE5556 expressing CTX-M-15 assessed as reduction in microbial growth incubated for 24 hrs by microdilution assay", "format": "functional", "conditions": "not given", "units": {"MIC": "mg/L"}, "values": [
      {"molecule": "CCCC/C=C\\CCOP(=O)(CCN(CCCNC(=N)N)CCCNC(=N)N)OCCCCCCOP(=O)(CCN(CCCNC(=N)N)CCCNC(=N)N)OCC/C=C\\CCCC.Cl.Cl.Cl.Cl.Cl.Cl", "note": "(stereo unspecified)", "MIC": 2},
      {"molecule": "CCCCCCCOP(=O)(CCN(CCCN)CCCN)OCCCCOP(=O)(CCN(CCCN)CCCN)OCCCCCCC.Cl.Cl.Cl.Cl.Cl.Cl", "note": "(stereo unspecified)", "MIC": 64}
    ]},
    {"test_system": "not listed separately", "assay": "Hemolytic activity in human RBC assessed as haemoglobin release measured after 3 hr", "format": "toxicity, cell-based, Erythrocyte", "conditions": "red blood cells (erythrocytes)", "units": {"HC50 at 3 h": "µg/mL"}, "values": [
      {"molecule": "CCCC/C=C\\CCOP(=O)(CCN(CCCNC(=N)N)CCCNC(=N)N)OCCCCCCOP(=O)(CCN(CCCNC(=N)N)CCCNC(=N)N)OCC/C=C\\CCCC.Cl.Cl.Cl.Cl.Cl.Cl", "note": "(stereo unspecified)", "HC50 at 3 h": 169},
      {"molecule": "CCCCCCCOP(=O)(CCN(CCCN)CCCN)OCCCCOP(=O)(CCN(CCCN)CCCN)OCCCCCCC.Cl.Cl.Cl.Cl.Cl.Cl", "note": "(stereo unspecified)", "HC50 at 3 h": "> 200"}
    ]},
    {"test_system": "Escherichia coli", "assay": "Antibacterial activity against Escherichia coli ATCC 25922 = CCM 3954 assessed as inhibition of bacterial growth incubated for 24 hrs by microdilution assay", "format": "functional", "conditions": "not given", "units": {"MIC": "mg/L"}, "values": [
      {"molecule": "CCCC/C=C\\CCOP(=O)(CCN(CCCNC(=N)N)CCCNC(=N)N)OCCCCCCOP(=O)(CCN(CCCNC(=N)N)CCCNC(=N)N)OCC/C=C\\CCCC.Cl.Cl.Cl.Cl.Cl.Cl", "note": "(stereo unspecified)", "MIC": 4},
      {"molecule": "CCCCCCCOP(=O)(CCN(CCCN)CCCN)OCCCCOP(=O)(CCN(CCCN)CCCN)OCCCCCCC.Cl.Cl.Cl.Cl.Cl.Cl", "note": "(stereo unspecified)", "MIC": 8}
    ]},
    {"test_system": "Staphylococcus aureus", "assay": "Antibacterial activity against methicillin resistant Staphylococcus aureus 4591/A assessed as reduction in microbial growth incubated for 24 hrs by microdilution assay", "format": "functional", "conditions": "not given", "units": {"MIC": "mg/L"}, "values": [
      {"molecule": "CCCC/C=C\\CCOP(=O)(CCN(CCCNC(=N)N)CCCNC(=N)N)OCCCCCCOP(=O)(CCN(CCCNC(=N)N)CCCNC(=N)N)OCC/C=C\\CCCC.Cl.Cl.Cl.Cl.Cl.Cl", "note": "(stereo unspecified)", "MIC": 1},
      {"molecule": "CCCCCCCOP(=O)(CCN(CCCN)CCCN)OCCCCOP(=O)(CCN(CCCN)CCCN)OCCCCCCC.Cl.Cl.Cl.Cl.Cl.Cl", "note": "(stereo unspecified)", "MIC": 4}
    ]},
    {"test_system": "Pseudomonas aeruginosa", "assay": "Antibacterial activity against Pseudomonas aeruginosa ATCC 27853 = CCM 3955 assessed as inhibition of bacterial growth incubated for 24 hrs by microdilution assay", "format": "functional", "conditions": "not given", "units": {"MIC": "mg/L"}, "values": [
      {"molecule": "CCCC/C=C\\CCOP(=O)(CCN(CCCNC(=N)N)CCCNC(=N)N)OCCCCCCOP(=O)(CCN(CCCNC(=N)N)CCCNC(=N)N)OCC/C=C\\CCCC.Cl.Cl.Cl.Cl.Cl.Cl", "note": "(stereo unspecified)", "MIC": 16},
      {"molecule": "CCCCCCCOP(=O)(CCN(CCCN)CCCN)OCCCCOP(=O)(CCN(CCCN)CCCN)OCCCCCCC.Cl.Cl.Cl.Cl.Cl.Cl", "note": "(stereo unspecified)", "MIC": 128}
    ]}
  ]
}
